Data from article PMC6152329, “Antitumoural Sulphur and Selenium Heteroaryl Compounds: Thermal Characterization and Stability Evaluation” (Molecules : A Journal of Synthetic Chemistry and Natural …, 2017).

What was measured:
[1] = DSC successive melting-recrystallization cycles, polymorphic behaviour; assay type: physicochemical; design: key: I: Compounds that show a polymorphic phase transition into an amorphous or mainly amorphous solid form after a first melting–cooling scan; II: Compounds that change into a new polymorphic form with a different Tonset of fusion than the one observed at the first melting–recrystallization scan after cooling; III: These compounds show a fusion process without modifications in the thermal behaviour after an initial fusion–recrystallization cycle; IV: Compounds that show recrystallization or other types of phase transition of the original form into another crystalline one in the first heat scan; V: Compounds without fusion processes at the range of temperatures studied; *: fusion with decomposition; conditions: 10 °C/min
Description: To establish general polymorphic behaviours, samples of all the compounds synthetized (Figure 1) were exposed to successive cycles of melting–recrystallization using DSC. Calorimetric analyses were performed before the beginning of the degradation process (Table 6). […] This behaviour was shown by several compounds: VA1C, VA2E, VA8E, series H, VA6I, VA8J, VA6M and VA8M. DSC and PXRD results of compound VA7H are shown as supplementary material (Figures S1 and S2 and Table S1). • Behaviour II—Compounds that change into a new polymorphic form with a different Tonset of fusion than the one observed at the first melting–recrystallization scan after cooling. These compounds are VA7E and VA8O. DSC and PXRD results of compound VA7E are shown as supplementary material (Figures S3 and S4, Table S2). • Behaviour III—These compounds show a fusion process without modifications in the thermal behaviour after an initial fusion–recrystallization cycle. Consequently, there is no evidence of polymorphic behaviour. The compounds VA2C, VA2M, VA4J and VA5O belong to this group. DSC and PXRD results of compound VA2M are shown as supplementary material (Figures S5 and S6, Table S3). • Behaviour IV—Compounds that show recrystallization or other types of phase transition of the original form into another crystalline one in the first heat scan. In the successive cycles of melting–recrystallization, the new form may not alter its crystalline form or transit to another polymorphic form. Compounds VA6E, VA7J and VA7M show this behaviour. • Behaviour V—Compounds without fusion processes at the range of temperatures studied.
For calorimetric studies a Perkin–Elmer DSC diamond calibrated with indium and zinc (provided by Perkin–Elmer (Perkin Elmer, Inc. Watham, MA, USA) and fabricated according to guideline ISO35) at 10 °C·min^−1 and nitrogen flow of 20 mL·min^−1 was employed. The gas connected to the equipment was nitrogen with a purity of 99.999%. Calorimetric analyses were carried out in aluminium capsules for volatilities of 10 μL, at a heating rate of 10 °C·min^−1, using a sample of approximately 3 mg, in order to establish the Tonset, Tmax and the enthalpy of fusion ∆Hf.
The calorimetric analyses started with the study of the thermal behaviour of the compounds before the process of degradation in order to evidence the possible existence of polymorphism. For this preliminary study, samples of all the compounds were exposed to successive cycles of heating–cooling. All samples were heated from 50 °C to temperatures 15–20 °C below Tonset of the degradation process, in order to ensure that compounds were not degraded (Table 6). After melting the samples, they were left at room temperature for enough time to allow the compounds to recrystallize before the successive thermal process. Additional cycles of heating–cooling were performed if polymorphism was detected.

[2] = Thermogravimetric (TG) analysis of thermal stability; assay type: physicochemical
Description: The thermogravimetric (TG) studies were carried out with a Perkin–Elmer TGA-7 (Perkin Elmer, Inc. Watham, MA, USA) which was calibrated with alumel and nickel at 10 °C·min^−1. The calibration of the oven temperatures was carried out automatically and mass calibrated with a certified sample of 10 mg (ASTM E617, provided by Perkin Elmer, Inc. Watham, MA, USA). TG analyses were performed under a nitrogen atmosphere with a gas flow of 40 mL·min^−1, from 50 to 350 °C, at a heating rate of 10 °C·min^−1, using a sample of approximately 3 mg, in order to obtain the values of the Tonset and Tmax of the degradation process as well as any associated mass loss.

[3] = Stability after stress conditions by HPLC/UV-DAD; assay type: physicochemical; conditions: 0, 4 and 24 h
Description: The stability of compounds VA4J (without polymorphic behaviour) and VA6E and VA7J (with polymorphic behaviour) was investigated after the application of diverse stress conditions: acid hydrolysis (HCl 1 M), basic hydrolysis (NaOH 0.1 M) and oxidation (H2O2 3%). Chromatographic studies using HPLC/UV-DAD were performed with this purpose.
Chromatographic studies were performed using an HPLC/UV-DAD (HP 1200, Agilent Technologies. Santa Clara, CA, USA) with a C18 column (Gemini-NX 150 × 4.6 mm, 5 µm) from Phenomenex (Phenomenex. Torrance, CA, USA). The mobile phase was a mixture of acetonitrile/water (80:20; v/v) for compound VA4J, (50:50; v/v) for VA6E and (80:20, 0.1% formic acid; v/v) for compound VA7J. The injection volume was 50 µL and the flow rate was 1 mL/min. Chromatography was performed at 35 °C. UV-DAD detection was established at λ = 254 nm.
For stability evaluation in stress conditions, working solutions of 47.6 µg/mL were prepared by diluting 20 µL of each standard solution in 200 µL of acetonitrile and 200 µL of (a) 1 M HCl, (b) 0.1 M NaOH and (c) 3% H2O2. Data were recorded at zero time and after 4 and 24 h of exposure.

[4] = system: breast adenocarcinoma (MCF-7) cell line; design: method as in PMID 27487570; conditions: same methodology; cited from earlier work

## N#CSCc1cc2c(cc1Br)OCO2 [VA6E]
[1]
  DSC Behaviour (polymorphic/calorimetric behaviour): IV
[2]; nitrogen, 50 to 350 °C, 10 °C/min
  TG To (Tonset of thermal degradation): 184.1 °C
[2]; range 100–135 °C for VA4J, 94–108 °C for VA6E
  TG decomposition or desolvation processes in the temperature range studied: can be excluded
[3]; H2O2 3%
  Stability to oxidation: degradation product peaks were also detected
[3]; HCl 1 M
  Stability to acid hydrolysis: degradation product peaks were also detected
[3]; NaOH 0.1 M
  Stability to basic (alkaline) hydrolysis: degraded almost completely
[4]
  Selectivity relative to MSA: fourteen times more selective than MSA
